According to a melting point compilation (Tetko et al.; mined from patent text by program, amines drawn as free bases though some values may be those of a salt):

SMILES | melting point [°C]
NC(=O)c1ccc(C(F)(F)F)cc1-c1cnccc1Oc1cccc(CCC(=O)N2CCN(Cc3ccc4c(c3)OCO4)CC2)c1 | 140 to 141
CC(C)(NCCONC(C)(C)C(=O)CCn1ccnc1[N+](=O)[O-])C(=O)CCn1ccnc1[N+](=O)[O-] | 90 to 92
O=C(CBr)Nc1ccc(I)cc1C(=O)c1ccccc1Cl | 150 to 152
CCCCCC1CCC(CCc2ccc(-c3ncc(O)cn3)c(F)c2F)CC1 (centres undefined) | 157
COc1ccccc1CNc1ccc2cc(Nc3nnn(C(C)(C)C)n3)ccc2n1 | 156
COC(=O)C1(O)CC(CO)=NN1c1ncccc1Cl (centres undefined) | 111 to 113
CC(=O)N1CCC2(CC1)C(=O)N(CC(=O)Nc1c(C(C)C)cccc1C(C)C)C(=O)N2c1ccc(C)cc1 | 136 to 138
C#CCn1c(-c2cc(Cl)nc(Cl)c2)nn(C(C)(C)C)c1=O | 107 to 109
COc1ccc(S(=O)(=O)N(CC(=O)NO)Cc2ccccc2)cc1 | 112 to 114
Cn1c(C(F)(F)F)cc(=O)n(-c2c(F)cc(Cl)c3cc(CS(C)(=O)=O)oc23)c1=O | 209 to 211
COCCNc1cc(NCCOC)c([N+](=O)[O-])cc1Cl | 106
O=[N+]([O-])c1ccc2c(c1)CS(=O)(=O)N2CCF | 142 to 144
CC(C)C(c1ccccc1N1CCCCC1)C(C(N)=O)c1ccc(C(=O)O)cc1 (centres undefined) | 215 to 217
CS(=O)(=O)c1ccnc(Oc2cc(C#N)cc(C#N)c2)n1 | 189 to 191
Nc1nc(O)c2c(n1)NCC(CCc1ccc(C(=O)N[C@@H](CCC(=O)O)C(=O)O)[nH]1)C2 (some centres undefined) | > 260
CNc1ccc(CO)cc1[N+](=O)[O-] | 126 to 127
COc1cccc(Cn2c(C(=O)O)c(-c3ccc(OCC4CC4)cc3)c3cc(OCc4ccccc4)ccc32)c1 | 185 to 187
CC(=O)Nc1c(C(=O)c2occc2CO)[nH]c2cc(Cl)ccc12 | 196 to 198
S=C(NCCc1ccccc1Cl)Nc1ccccn1 | 116 to 122
CCCCC(CC)COC(=O)C(C#N)=C1C=C(C)N(CCCC)C(C)=C1 (centres undefined) | 69 to 70
O=C(O)c1cc(-c2ccccc2)c2ccsc2c1 | 222
Nc1ccc(C(=O)N2CCCCCC2=O)cc1 | 156 to 158
CCCn1ccnc1C(=O)Cc1ccc([N+](=O)[O-])cc1 | 95 to 96

SMILES | melting point [°C]
CN(c1ncccc1C#N)C1CCN(Cc2ccccc2)CC1 | 58 to 60
Cc1cc(C)c(O)c(Cc2cc(C)cc(C)c2O)c1 | 125 to 126
O=COC1(N=NC2(OC=O)CCCCC2)CCCCC1 | 97 to 99.5
COc1cc(OC)nc(Oc2cccnc2C=O)n1 | 76
CCOC(=O)N1C[C@H](O)C[C@H]1CCOc1ccc(Br)cc1CCc1ccccc1 | 63 to 66
CC(O)=C(C#N)C(=O)Nc1ccc(C(C)(C)C)cc1 | 134 to 135
Cc1ccc(-c2c(C)c(NC(=O)CC(C)(C)C)c(C)c3c2OCC3c2ccc(C(C)C)cc2)cc1 (centres undefined) | 194 to 195
CCCC(=O)NC1=NN(c2cccc(Cl)c2)CC1 | 168 to 169
CC1(C)CCC(C)(C)c2cc(C#Cc3ccc(CO)cc3)ccc21 | 115 to 117
C[C@@H](n1cnc2cccc(Cl)c2c1=O)[C@](O)(Cn1cncn1)c1ccc(F)cc1F | 114 to 119
O=C(O)[C@H](CC(=NO)c1ccc2oc3ccccc3c2c1)NC(=O)C(F)(F)F | 128 to 130
Oc1ccc2nc(-c3ccc(O)c(F)c3)cc(-c3ccc(F)cc3)c2c1 | 240 to 243
COC(=O)c1nn(C2CCCCO2)cc1NC(=O)c1cccc(C)n1 (centres undefined) | 100 to 102
Nc1ncn(C[C@@H](CO)OCP(=O)(O)O)c(=O)n1 | 175 to 178
C#CC1(NC(=O)C(CCN2CCN(c3ccccc3OC)CC2)c2ccccc2)CCCCC1 (centres undefined) | 127 to 129
CCCOc1ccc(S(C)(=O)=O)cc1-c1nc2c(CC)n(CC3CC3)nc2c(=O)[nH]1 | 233 to 234
NC(=NO)c1ncn2c1[C@@H]1CCN1C(=O)c1cc(F)ccc1-2 | 248 to 250
O=c1c2cc([N+](=O)[O-])ccc2nc2n1CS(=O)(=O)N2 | > 300
Cc1nc(C)c(-c2cncc(OC3SCC(O)C(O)C3O)c2)s1 (centres undefined) | 150
Nc1nc2[nH]c(CCCCCCc3ccc(C(=O)N[C@@H](CCC(=O)O)C(=O)O)s3)cc2c(=O)[nH]1 | 183 to 184
N#Cc1ccc2c(c1)c1cc(C(=N)Nc3cccc(C(F)(F)F)c3)ccc1n2Cc1ccccc1 | 210 to 220
COc1ccc2oc(Cc3cccnc3)c(CCNC(C)=O)c2c1 | 117
CCOC(=O)C1CCc2cc([N+](=O)[O-])ccc2O1 (centres undefined) | 80.8

SMILES | melting point [°C]
CCCCN1C(=O)CC(C2C(=O)N(CCCC)C(=O)C2c2cc(C(C)(C)C)c(O)c(C(C)(C)C)c2)C1=O (centres undefined) | 151 to 153
C=CCOP(=O)(OCC=C)C(N)=O | 91 to 94
N#Cc1ccc2c(c1)S(=O)c1ccc(F)cc1C=C2 (centres undefined) | 240 to 243
Cc1nc2n(c(=O)c1CCO)CCS2 | 149
CC1SC(=O)NN=C1c1cccc(N)c1 (centres undefined) | 167 to 170
Cc1c(C(Cl)=Cc2ccc(C(F)(F)F)cc2)ccc2nc(N)nc(N)c12 | > 300
CC(C)(C)OC(=O)NC1CCN(C(=O)C2CCN(C(=O)OCc3ccccc3)CC2)CC1 | 150 to 152
CCc1c(-c2ccc(OCc3ccccc3)cc2)c2c(COCCCCCCCN3CCCCC3)cc3c(OCc4ccccc4)ccc1n32 | 86 to 90
Oc1ccc2c(c1)C13CCCCC1N(C2)N(CC1CC1)CC3 (single isomer, unassigned; (+)) | 151 to 153
O=C(Cn1c(-c2ccc(Cl)cc2)nc2cccnc21)NC1=NCCS1 | 227 to 229
COC(=O)c1cccc(OC(=O)C(=O)Oc2cccc(C(=O)OC)c2)c1 | 194 to 195
CN(C)S(=O)(=O)Nc1ccc2[nH]cc(CC#N)c2c1 | 147 to 150
CCOCCC(=O)C=P(c1ccccc1)(c1ccccc1)c1ccccc1 | 63 to 65
CCn1c(=O)c2c(nc(/C=C/c3ccc(OC)c(C)c3C)n2C)n(CC)c1=O | 208
NC(=O)C1(Nc2ccccc2)CCN(C2CCCc3ccccc32)CC1 (centres undefined) | 186 to 187
CC(=O)N[C@@H](CSc1ccccc1[N+](=O)[O-])C(=O)O | 175 to 176
O=C(NCCCCCCOC(=O)N1CCC(OC(=O)NC2CCCCC2)CC1)Oc1ccc(Oc2ccccc2)cc1 | 138 to 142
C[C@H]([C@](O)(Cn1cncn1)c1ccc(F)cc1F)S(=O)(=O)N1CCN(Cc2nncn2C)CC1 | 210 to 211
Cc1nc(C)n(-c2cc([C@@H]3C[C@H]3c3nc4ccccc4n3C)nc(C#N)n2)n1 (relative stereo) | 229 to 231
O=[N+]([O-])c1cc(C2=Nc3ccccc3SC2)cc(O)c1O | 302 to 304
COc1cc(CON=C(CCC(=O)O)c2ccccc2)cc(OC)c1OCc1nc(-c2ccccc2)oc1C | 89 to 90
CN(C)c1cccc(OC(=O)NC2C(=O)N(CCC(C)(C)C)c3ccccc3N(c3ccccc3F)C2=O)c1 (centres undefined) | 160 to 161

Second part, the compound after the results:

melting point [°C] | SMILES
250 | CC1(C)CCC(C)(C)c2cc(-c3cc(-c4ccc(C(=O)O)cc4)ccc3OCCCCN)ccc21
153 to 154 | CSc1ccc(-c2coc3ccc(-c4nnc(C)o4)cc23)c(Cl)c1
54.5 to 56.5 | CCOc1ccc2c(c1)C(C)=CC(C)(C)N2C(=O)OC
180 to 183 | CCn1ccc(-c2ccc(C(=O)N3Cc4cccn4Cc4ccccc43)cc2)n1
200 to 201 | O=C(O)C1c2ccccc2COc2ccccc21 (centres undefined)
187 | CC(=NNC(=O)c1ccccc1C)c1ccncc1
95.5 to 98 | O=[N+]([O-])c1cccnc1NCC(O)CO (centres undefined)
165 to 168 | COc1ccccc1N1CCN(C(=O)[C@H](N)CC2CCCCC2)CC1
154 to 155 | O=c1ccn(CCOCc2ccccc2)c(C(O)c2ccccc2)c1OCc1ccccc1 (centres undefined)
129 to 130 | CC(C)n1nc(-c2c(OCCF)nc(N)nc2-c2ccccc2)ccc1=O
123 to 125 | CC(=O)Oc1ccc(C(=O)O)cc1C(C)(C)C
144 to 145 | CCOC(=O)C1=C(C)NC(C)=C(C(=O)OCC)C1c1ccccc1Br
59 to 61 | COC(=O)CNC(=O)c1ncccc1O
132 to 135 | COC(=O)C1(C)CCc2c(C)c(O)c(C)c(C)c2O1 (centres undefined)
133 to 136 | N#Cc1ccc(Cc2nc3ccccc3[nH]2)cc1
277 | COC(=O)CCCCC(=O)Nc1ccc(C(=O)NN=C2C(=O)Nc3ccc(I)cc32)cc1

melting point [°C] | SMILES
124 to 126 | O=C(O)CCc1ccc(CO)cc1
194 to 196 | CNc1nc(-c2cccc(NC(=O)c3ccccc3OC)c2)c2cc(OC)c(OC)cc2n1
199 to 201 | CCOC(=O)Cc1c(-c2ccc(OC)cc2)sc2c1c(=O)c(C(=O)OCC)cn2Cc1ccccc1F
213 to 214 | CC(C)(C)C(NC(=O)c1ccc(Cl)cc1)NC(Nc1cccnc1)=C(C#N)C#N (centres undefined)
97 to 99 | Cn1c(C(F)(F)F)cc(=O)n(-c2cc(OCCOC=C(Cl)Cl)c(Cl)cc2F)c1=O
> 300 | Nc1ncnc2cc(CCl)ccc12
149 to 150 | O=C1NC(=O)N(Cc2ccc(Cl)cc2)C1O (centres undefined)
78 to 81 | O=[N+]([O-])C=C1C2CC3CC(C2)CC1C3
139 to 141 | CC(C)C(=O)NC(=O)N1C(=O)Cc2cc(Cl)ccc21
232 to 234 | O=C(CN1c2nc(-c3ccncc3)cc(=O)n2CCC12CC2)c1ccccc1
145 to 146 | O=C(NCCO)c1csc(-c2cccc([N+](=O)[O-])c2)n1
134 to 137 | CSCc1cc(N)ccc1N1C(=O)c2ccc(Cl)cc2C1=O
239 to 240 | CCc1cc(-c2ccc(Cl)cc2)nc2c(C(=O)Nc3cccc(S(=O)(=O)NC(C)(C)CO)c3)cnn12
88 to 91 | Cc1nc2sccn2c1-c1ccc(C#N)cc1
88 to 90 | N#CCCCCNc1ccc(O)cc1
